The text below walks through data of publication PMC10846744, “Cathelicidin peptide analogues inhibit EV71 infection through blocking viral entry and uncoating” (PLOS Pathogens, 2024).

Where no end group is shown, it is not given here.

Data set [1] deals with EV71 virus. As to the kind of experiment: Virus internalization assay (q-RT-PCR, immunoblotting). Type of data set: cell-based, enterovirus 71 (EV71). To be noted: 1.5 μM peptide (q-RT-PCR, MOI = 1) or 3 μM (immunoblotting, MOI = 10); RD cells 4°C 1 hr then 37°C 1 hr. The protocol:
(§1) Fig 3 LL-18 and FF-18 inhibit viral attachment and internalization. (A) EV71 virus (MOI = 1) was pre-incubated with 1.5 μM LL-18, FF-18 or 12 μM 12s before they were used to incubate with RD cells at 4°C for 1 hr. Viral RNA was then determined with q-RT-PCR. Values are normalized to vehicle treated cells. ***, P<0.001. (B) EV71 virus (MOI = 1) was pre-incubated with 1.5 μM LL-18, FF-18 or 12 μM 12s before they were used to incubate with RD cells at 4°C for 1 hr followed by 37°C incubation for 1 hr. Viral RNA was then determined with q-RT-PCR. Values are normalized to vehicle treated cells. ***, P<0.001. (C) Diagram of EV71 subgenomic replicon. […] (D) RD cells transfected with EV71 SGR RNA were treated with 1.5 μM LL-18 or FF-18 for 3 hrs (left panel) or 6 hrs (right panel) before luciferase activity was measured. ns, not significant.
(§2) Viral binding and internalization assays were performed as previously described. […] Cells were then washed extensively with ice-cold PBS, and the viruses retained were analyzed with real-time PCR. […]
(§3) Supplementary file ppat.1011967.s002.tif: S2 Fig LL-18 and FF-18 inhibit viral attachment and internalization. […] Cells were then washed extensively and kept cultured for 24 hrs before viral VP1 expression was determined with immunoblotting. […] Cells were then washed extensively and kept cultured for 24 hrs before viral VP1 expression was determined with immunoblotting. […]

The test system of another data set is RD cells. As to the kind of experiment: Cytotoxicity of peptides on RD cells (Cell Titer-Glo). Type of data set: cell-based, human. Conditions: cell viability plotted against peptide concentration, Cell Titer-Glo (S1A-S1D Fig). The protocol: To test whether Cathelicidin peptide (LL-37) and its analogues could inhibit enterovirus infection, we conducted viral infection inhibition test on RD cells, which are one of the most commonly used cells for enterovirus propagation. We first assessed the cytotoxicity of LL-37, LL-18, FF-18, and a short form of LL-37 (DL-37) (Fig 1A), and all the peptides tested have a CC50 over 50 μM (S1A–S1D Fig). We then chose lower concentrations to test their antiviral activity. […] In addition, EV71 infection could cause cytopathic effect (CPE) on RD cells, and peptide could rescue EV71-induced cell death as assayed by crystal violet staining (Fig 1E) or cellular ATP content measurement (Fig 1F).
(§4) Cell viability assays were carried out using the Cell Titer-Glo Luminescent Cell Viability Assay Kit (Promega, Madison, WI) following the manufacturer’s instructions. Luminescence signals were measured using a BioTek Neo2 microplate reader.
(§5) (A-D) Cell viability of RD cells treated with the indicated amount of DL-37 (A), LL-37 (B), LL-18 (C), or FF-18 (D) was plotted against peptide concentration, and the cytotoxicity was determined. (E) EV71 virus pre-incubated with indicated amounts of DL-37, and the cell viability was determined 24 h.p.i. ***, P<0.001. (F-G) CVB5 (F) or Echo7 (G) virus pre-incubated with 0.3, 0.9, or 1.5 μM of peptides were used to infect RD cells. Cell viability was determined 24 h.p.i. ***, P<0.001. (H-I) CVB5 (H) or Echo7 (I) virus pre-incubated with 3, 6, or 12 μM of peptides were used to infect RD cells. Cell viability was determined 24 h.p.i. ***, P<0.001. (TIF) Click here for additional data file.

The subject of data set [2] is EV71 virus. As to the kind of experiment: Virus attachment assay (q-RT-PCR, immunoblotting). Type of data set: cell-based, enterovirus 71 (EV71). Conditions: 1.5 μM peptide (q-RT-PCR, MOI = 1) or 3 μM (immunoblotting, MOI = 10); RD cells 4°C 1 hr. The protocol: as §1, §2, §3
For a further data set, the system named is Echovirus 7 (Echo7). As to the kind of experiment: Echo7 infection inhibition on RD cells (cell viability). Type of data set: cell-based. Conditions: for inhibition of Echo7 infection: 0.3, 0.9, or 1.5 μM peptide pre-incubated with virus, RD cell viability 24 h.p.i (S1G Fig); for inhibition of Echo7 infection, higher concentrations: 3, 6, or 12 μM peptide pre-incubated with virus, RD cell viability 24 h.p.i (S1I Fig). As for the experimental part:
Synthetic peptides were purchased from Bioyears Co. Ltd. (Wuhan, China) with purity of more than 95% and dissolved in PBS. To test their inhibitory effects, the EV71 virus (MOI = 1) was incubated with the indicated amount of peptide at room temperature for 1 hr before the mixture was added to RD cells and maintained throughout the experiment. Cell viability, viral titer, or viral protein expression was determined 24 h.p.i. For the time-of-addition experiment, viruses were either pre-incubated with peptides (for the -2 and -1 time points), the mixture was added to the cells simultaneously (for 0 time point), or peptides were added after virus infection (for 1, 2, 4 and 7 h time points) and the virus/peptide was maintained in the culture before cell viability, viral titer, or viral protein expression was determined 24 h.p.i. The TCID50 of the virus was calculated according to the Reed-Muench method.
as §4, §5

As to FRKSKEKIGKFFKRIVQRIFDFLRNLV [FF-18], the “inhibition of EV71 internalization” value in the data set with EV71 virus [1] was “strong inhibition”. For the same sequence, in the data set on RD cells, the CC50 entry was “over 50 μM”. Moreover, in the data set with EV71 virus [2], the “inhibition of EV71 attachment” value is reported as “could effectively inhibit EV71 attachment”. In addition, in the data set with Echovirus 7 (Echo7), the “inhibition of Echo7 infection” value was “neither LL-18 nor FF-18 could inhibit CVB5 or Echo 7 infection” and the “inhibition of Echo7 infection, higher concentrations” value was “could still not inhibit CVB5 or Echo 7 infection”.
FRKSKEKIGKLFKRIVQRILDFLRNLV [LL-18]: the “inhibition of EV71 internalization” value with EV71 virus [1] is recorded as “strong inhibition”. For the same sequence, the CC50 result in the data set on RD cells was “over 50 μM”. The “inhibition of EV71 attachment” value in the data set on EV71 virus [2] is given as “could effectively inhibit EV71 attachment”. Also, in the data set with Echovirus 7 (Echo7), the “inhibition of Echo7 infection” value is “neither LL-18 nor FF-18 could inhibit CVB5 or Echo 7 infection” and the “inhibition of Echo7 infection, higher concentrations” value is given as “could still not inhibit CVB5 or Echo 7 infection”.
